{"source": "patent US5766914A", "about": "“Method of producing and purifying enzymes” (Michigan State University, priority 1995, dated 1998)", "key": {"[1]": {"target": "native β-galactosidase (soluble; lacZ of Escherichia coli) (Escherichia coli, UniProt P00722)", "sequence (P00722 2-1024 limits assumed)": "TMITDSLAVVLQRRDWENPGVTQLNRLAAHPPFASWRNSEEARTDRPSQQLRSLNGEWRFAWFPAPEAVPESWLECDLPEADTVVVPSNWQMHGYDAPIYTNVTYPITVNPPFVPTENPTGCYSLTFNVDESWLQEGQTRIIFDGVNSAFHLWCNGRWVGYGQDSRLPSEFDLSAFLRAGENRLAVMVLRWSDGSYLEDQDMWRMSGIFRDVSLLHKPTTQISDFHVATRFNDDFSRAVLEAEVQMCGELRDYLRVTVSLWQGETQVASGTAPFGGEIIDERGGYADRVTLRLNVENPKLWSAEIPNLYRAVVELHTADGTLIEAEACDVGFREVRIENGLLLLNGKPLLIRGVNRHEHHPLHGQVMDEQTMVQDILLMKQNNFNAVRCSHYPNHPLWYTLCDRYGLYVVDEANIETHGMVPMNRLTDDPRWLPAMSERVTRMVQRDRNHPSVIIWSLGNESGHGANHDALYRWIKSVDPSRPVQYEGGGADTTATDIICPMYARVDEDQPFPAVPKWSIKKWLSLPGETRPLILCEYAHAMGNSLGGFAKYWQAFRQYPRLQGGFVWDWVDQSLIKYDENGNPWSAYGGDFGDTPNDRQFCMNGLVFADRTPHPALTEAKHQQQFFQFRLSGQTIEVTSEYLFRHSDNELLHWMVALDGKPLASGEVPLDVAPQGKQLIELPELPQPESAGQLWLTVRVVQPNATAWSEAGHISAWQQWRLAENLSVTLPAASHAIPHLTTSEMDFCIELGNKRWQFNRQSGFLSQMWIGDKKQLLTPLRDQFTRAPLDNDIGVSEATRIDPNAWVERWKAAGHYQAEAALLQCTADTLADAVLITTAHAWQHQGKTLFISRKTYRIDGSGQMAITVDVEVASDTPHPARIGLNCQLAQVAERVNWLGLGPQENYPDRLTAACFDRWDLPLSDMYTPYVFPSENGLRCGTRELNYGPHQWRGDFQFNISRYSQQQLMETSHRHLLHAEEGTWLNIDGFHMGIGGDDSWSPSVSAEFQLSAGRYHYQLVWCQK", "assay": "β-galactosidase assay, KM for ONPG, native enzyme", "type": "biochemical", "settings": "0.1M sodium phosphate pH 7.5, room temperature, Michaelis-Menten curve through normalized data, FIG. 3", "experimental": "(§1) β-galactosidase assay. The assay is based on that of Sambrook, et al. (J. Sambrook, et al., \"Molecular Cloning (A laboratory manual)\", 2nd Ed. Cold Spring Harbor Laboratory Press, Cold Spring Harbor, New York, 1989) with minor modifications. The assay mixture contains 0.1M sodium phosphate, pH 7.5, containing 3 mM o-nitrophenyl β-D-galactopyranoside […] (ONPG), 40.5 mM 2-mercaptoethanol and 90 μM MgCl2 in a total volume of 600 μL. Reactions were initiated by addition of enzyme, and carried out at room temperature unless otherwise noted. Activity was determined from the slopes of initial rates monitored at 420 nm. O-nitrophenol, the product of β-galactosidase-catalyzed hydrolysis of ONPG, has a molar extinction coefficient at 420 nm under assay conditions of 3.1×10^3 M^-1 cm^-1 (R. C. Weast, \"Handbook of Chemistry and Physics\", 60th ed. CRC Press, Boca Raton, Fla., 1979). β-galactosidase activity is reported in units of μmol ONPG hydrolyzed/min.\nCatalytic properties of β-galactosidase in the spore coat. FIG. 3 diagrams KM values for native β-galactosidase (.circle-solid.) and the CotC-β-galactosidase fusion in the spore coat of spores from the cotC-lacZ fusion strain (.box-solid.). Data sets were normalized to the same Vmax value, set equal to 100. […]"}, "[2]": {"test_system": "CotC-β-galactosidase fusion (47 codons of B. subtilis cotC, SEQ ID NO:4, fused to E. coli lacZ) in the spore coat of spores from the cotC-lacZ fusion strain of …", "assay": "β-galactosidase assay, KM for ONPG, spore-immobilized fusion", "type": "biochemical, Escherichia coli / Bacillus subtilis", "settings": "0.1M sodium phosphate pH 7.5, room temperature, Michaelis-Menten curve through normalized data, FIG. 3", "experimental": "as §1\ncot-lacZ fusions. Strains bearing the cotC-lacZ and cotD-lacZ fusions were generously provided by L. Kroos. […]\nThe cotC-lacZ fusion includes 355 bp upstream of the open reading frame of cotC and 47 codons of the open reading frame fused in frame to lacZ from plasmid pSGMU31. The cotD-lacZ fusion includes 237 upstream bp and 58 codons of the open reading frame of cotD. […]"}}, "data": [{"smiles": "O=[N+]([O-])c1ccccc1O[C@@H]1O[C@H](COP(=O)(O)O)[C@H](O)[C@H](O)[C@H]1O", "note": "[ONPG, o-nitrophenyl β-D-galactopyranoside 6-phosphate]", "values": [{"measurement": "Km", "setting": "[1]", "result": 400, "unit": "µM"}, {"measurement": "Km", "setting": "[2]", "result": 400, "unit": "µM"}]}]}
